target: Factor D (Homo sapiens (Human), UniProt P00746); assay: Factor D esterolytic assay (Z-Lys-SBzl substrate, DTNB, 405 nm); format: biochemical; conditions: Z-Lys-SBzl 1.29 mM, pH 7.5, 10% DMSO, tested a minimum of three times, read-out: Measured Ki (IC50) Value for Compounds: IC50
Procedure, shortened: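 Human Factor D ([…]) with 1.29 mM Z-Lys-SBzl in 100 mM HEPES, 500 mM NaCl, pH 7.5, 10% DMSO; substrate added immediately or after room-temperature preincubation. Released thiol reacted with DTNB, rate followed at 405 nm for 600 sec, 690 nm background subtracted. IC50 from percent inhibition versus uninhibited rate, n≥3.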

Chain of Factor D (P00746 26-253): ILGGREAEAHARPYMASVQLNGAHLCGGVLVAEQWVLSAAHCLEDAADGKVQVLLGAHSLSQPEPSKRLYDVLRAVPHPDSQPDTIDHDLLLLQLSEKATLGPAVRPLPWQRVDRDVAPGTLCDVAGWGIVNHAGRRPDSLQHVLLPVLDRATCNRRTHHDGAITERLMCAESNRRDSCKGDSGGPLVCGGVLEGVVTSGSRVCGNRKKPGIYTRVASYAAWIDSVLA

`NCc1ccc(CC(=O)O)c(OCc2cc(-c3ccnc(CN)c3)c3occc3c2)c1` [Compound 451c, 2-(4-(aminomethyl)-2-((7-(2-(aminomethyl)pyridin-4-yl)benzofuran-5-yl)methoxy)phenyl)acetic acid] and `Cc1cc(CC(=O)O)c(OCc2cc(-c3ccnc(CN)c3)c3occc3c2)cc1C` [Compound 428c, 2-(2-((7-(2-(aminomethyl)pyridin-4-yl)benzofuran-5-yl)methoxy)-4,5-dimethylphenyl)acetic acid] cannot be ordered by IC50: less than 1000 nM for the first, less than 1000 nM for the second.

`COCc1cc2cc(COc3cc(NC(C)=O)ccc3CC(=O)O)cc(-c3cccc(CN)c3)c2o1` [Compound 417e, 2-(4-acetamido-2-((7-(3-(aminomethyl)phenyl)-2-(methoxymethyl)benzofuran-5-yl)methoxy)phenyl)acetic acid] and `CC(=O)Nc1ccc(CC(=O)O)c(OCc2cc(-c3cccc(CN)c3)c3occc3c2)c1` [Compound 224c, 2-(4-acetamido-2-((7-(3-(aminomethyl)phenyl)benzofuran-5-yl)methoxy)phenyl)acetic acid] cannot be ordered by IC50: less than 1000 nM for the first, less than 1000 nM for the second.

`NCc1cccc(-c2nc(C(=O)Nc3cscc3CC(=O)O)cc3ccoc23)c1` [Compound 145c, 2-(4-(7-(3-(aminomethyl)phenyl)furo[2,3-c]pyridine-5-carboxamido)thiophen-3-yl)acetic acid] and `NCc1cccc(-c2nc(C(=O)Nc3ccsc3CC(=O)O)cc3ccoc23)c1` [Compound 147c, 2-(3-(7-(3-(aminomethyl)phenyl)furo[2,3-c]pyridine-5-carboxamido)thiophen-2-yl)acetic acid] cannot be ordered by IC50: less than 1000 nM for the first, less than 1000 nM for the second.

`NCc1cccc(-c2cc(COc3ccccc3CC(=O)O)cc3cc(C4CC4)oc23)c1F` [Compound 88b, 2-(2-((7-(3-(aminomethyl)-2-fluorophenyl)-2-cyclopropylbenzofuran-5-yl)methoxy)phenyl)acetic acid] and `NCc1cccc(-c2cc(COc3ccccc3CC(=O)O)cc3cc(F)oc23)c1F` [Compound 373b, 2-(2-((7-(3-(aminomethyl)-2-fluorophenyl)-2-fluorobenzofuran-5-yl)methoxy)phenyl)acetic acid] cannot be ordered by IC50: less than 1000 nM for the first, less than 1000 nM for the second.

Compared with `NCc1cccc(-c2cc(C(=O)Nc3ccccc3CC(=O)O)cc3cc(C4CC4)oc23)c1` [Compound 62c, 2-(2-(7-(3-(aminomethyl)phenyl)-2-cyclopropylbenzofuran-5-carboxamido)phenyl)acetic acid], `Cc1nc2cc(C(=O)Nc3ccccc3CC(=O)O)cc(-c3cccc(CN)c3)c2n1C` [Compound 30d, 2-(2-(7-(3-(aminomethyl)phenyl)-1,2-dimethyl-1H-benzo[d]imidazole-5-carboxamido)phenyl)acetic acid] is higher in IC50: less than 1000 nM for the first, greater than 10000 nM for the second. The first is the more potent here.

`Cc1nc2cc(COc3ccccc3CC(=O)O)cc(-c3cccc(CN)c3)c2o1` [Compound 91h, 2-(2-((7-(3-(aminomethyl)phenyl)-2-methylbenzo[d]oxazol-5-yl)methoxy)phenyl)acetic acid] and `CC(N)c1cc2cc(COc3ccccc3CC(=O)O)cc(-c3cccc(CN)c3)c2o1` (single isomer, unassigned; (-)) [Compound 442d, (−)-2-(2-((2-(1-aminoethyl)-7-(3-(aminomethyl)phenyl)benzofuran-5-yl)methoxy)phenyl)acetic acid] cannot be ordered by IC50: less than 1000 nM for the first, less than 1000 nM for the second.

`CCOC(=O)Cc1ccccc1NC(=O)c1cc(-c2cccc(CN)c2)c2cn(CC3CC3)nc2c1` [Compound 11a, ethyl 2-(2-(4-(3-(aminomethyl)phenyl)-2-(cyclopropylmethyl)-2H-indazole-6-carboxamido)phenyl)acetate] and `CCOC(=O)Cc1ccccc1NC(=O)c1cc(-c2cccc(CN)c2)c2cc[nH]c2n1` [Compound 14c, ethyl 2-(2-(4-(3-(aminomethyl)phenyl)-1H-pyrrolo[2,3-b]pyridine-6-carboxamido)phenyl)acetate] cannot be ordered by IC50: greater than 10000 nM for the first, greater than 10000 nM for the second.

`NCc1cccc(-c2cc(COc3ccccc3CC(=O)O)cc3cc(CCO)oc23)c1F` [Compound 179b, 2-(2-((7-(3-(aminomethyl)-2-fluorophenyl)-2-(2-hydroxyethyl)benzofuran-5-yl)methoxy)phenyl)acetic acid] and `NCc1cccc(-c2cc(COc3cc(F)ccc3CC(=O)O)cc3cc(F)oc23)c1F` [Compound 521b, 2-(2-((7-(3-(aminomethyl)-2-fluorophenyl)-2-fluorobenzofuran-5-yl)methoxy)-4-fluorophenyl)acetic acid] cannot be ordered by IC50: less than 1000 nM for the first, less than 1000 nM for the second.

`NCc1cccc(-c2nc(C(=O)Nc3ccsc3CC(=O)O)c3cccn3n2)c1F` [Compound 144d, 2-(3-(2-(3-(aminomethyl)-2-fluorophenyl)pyrrolo[2,1-f][1,2,4]triazine-4-carboxamido)thiophen-2-yl)acetic acid] and `NCc1cccc(-c2nc(C(=O)Nc3cscc3CC(=O)O)c3cccn3n2)c1F` [Compound 142d, 2-(4-(2-(3-(aminomethyl)-2-fluorophenyl)pyrrolo[2,1-f][1,2,4]triazine-4-carboxamido)thiophen-3-yl)acetic acid] cannot be ordered by IC50: less than 1000 nM for the first, less than 1000 nM for the second.

`COc1ccc(OCc2cc(-c3cccc(CN)c3)c3ccn(C(C)C)c3c2)c(CC(=O)O)c1` [Compound 493b, 2-(2-((4-(3-(aminomethyl)phenyl)-1-isopropyl-1H-indol-6-yl)methoxy)-5-methoxyphenyl)acetic acid] and `Cn1ccc2c(-c3cccc(CN)c3)cc(COc3ccccc3CC(=O)O)cc21` [Compound 50e, 2-(2-((4-(3-(aminomethyl)phenyl)-1-methyl-1H-indol-6-yl)methoxy)phenyl)acetic acid] cannot be ordered by IC50: less than 1000 nM for the first, less than 1000 nM for the second.

`NCc1cccc(-c2cc(COc3ccccc3CC(=O)O)cc3cc(CNC(=O)c4ccccc4)oc23)c1` [Compound 294f, 2-(2-((7-(3-(aminomethyl)phenyl)-2-(benzamidomethyl)benzofuran-5-yl)methoxy)phenyl)acetic acid] and `CC(C)c1cc2cc(COc3ccccc3CC(=O)O)cc(-c3cccc(CN)c3)c2o1` [Compound 108f, 2-(2-((7-(3-(aminomethyl)phenyl)-2-isopropylbenzofuran-5-yl)methoxy)phenyl)acetic acid] cannot be ordered by IC50: less than 1000 nM for the first, less than 1000 nM for the second.

`NCc1cccc(-c2cc(COc3ccccc3CC(=O)O)c(F)c3ccoc23)c1F` [Compound 137b, 2-(2-((7-(3-(aminomethyl)-2-fluorophenyl)-4-fluorobenzofuran-5-yl)methoxy)phenyl)acetic acid] and `Cc1ccc(CC(=O)O)c(OCc2cc(-c3ccnc(CN)c3F)c3occc3c2F)c1` [Compound 342e, 2-(2-((7-(2-(aminomethyl)-3-fluoropyridin-4-yl)-4-fluorobenzofuran-5-yl)methoxy)-4-methylphenyl)acetic acid] cannot be ordered by IC50: less than 1000 nM for the first, less than 1000 nM for the second.

`C[C@@H](N)c1cccc(-c2cc(COc3ccccc3CC(=O)O)cc3ccoc23)c1` [Compound 78c, (R)-2-(2-((7-(3-(1-aminoethyl)phenyl)benzofuran-5-yl)methoxy)phenyl)acetic acid] and `NCc1ccc(CC(=O)O)c(OCc2cc(-c3cccc(C(N)CF)c3)c3occc3c2)c1` (single isomer, unassigned; (+)) [Compound 410d, (+)-2-(2-((7-(3-(1-amino-2-fluoroethyl)phenyl)benzofuran-5-yl)methoxy)-4-(aminomethyl)phenyl)acetic acid] cannot be ordered by IC50: less than 1000 nM for the first, less than 1000 nM for the second.

`Cc1ccc(CC(=O)O)c(OCc2cc(-c3cccc(CN)c3F)c3occc3c2)c1C` [Compound 304b, 2-(2-((7-(3-(aminomethyl)-2-fluorophenyl)benzofuran-5-yl)methoxy)-3,4-dimethylphenyl)acetic acid] and `NCc1cccc(-c2cc(COc3c(CC(=O)O)cccc3-c3ccccc3)cc3ccoc23)c1` [Compound 370f, 2-(2-((7-(3-(aminomethyl)phenyl)benzofuran-5-yl)methoxy)-[1,1′-biphenyl]-3-yl)acetic acid] cannot be ordered by IC50: less than 1000 nM for the first, less than 1000 nM for the second.

`NCc1nccc(-c2cc(COc3cc(F)ccc3CC(=O)O)cc3c(C(F)(F)F)coc23)c1F` [Compound 490c, 2-(2-((7-(2-(aminomethyl)-3-fluoropyridin-4-yl)-3-(trifluoromethyl)benzofuran-5-yl)methoxy)-4-fluorophenyl)acetic acid] and `NCc1cc(-c2cc(COc3ccccc3CC(=O)O)cc3cc(C(F)(F)F)oc23)ccn1` [Compound 226c, 2-(2-((7-(2-(aminomethyl)pyridin-4-yl)-2-(trifluoromethyl)benzofuran-5-yl)methoxy)phenyl)acetic acid] cannot be ordered by IC50: less than 1000 nM for the first, less than 1000 nM for the second.

`Cc1c(COc2ccccc2CC(=O)O)cc2ccoc2c1-c1cccc(CN)c1` [Compound 413m, 2-(2-((7-(3-(aminomethyl)phenyl)-6-methylbenzofuran-5-yl)methoxy)phenyl)acetic acid] and `NCc1cccc(-c2cc(COc3ccc(F)cc3CC(=O)O)cc3ccoc23)c1` [Compound 205d, 2-(2-((7-(3-(aminomethyl)phenyl)benzofuran-5-yl)methoxy)-5-fluorophenyl)acetic acid] cannot be ordered by IC50: less than 1000 nM for the first, less than 1000 nM for the second.

`NCc1cccc(-c2nc(COc3ccccc3CC(=O)O)nc3c2ccn3CC2CC2)c1` [Compound 26d, 2-(2-((4-(3-(aminomethyl)phenyl)-7-(cyclopropylmethyl)-7H-pyrrolo[2,3-d]pyrimidin-2-yl)methoxy)phenyl)acetic acid] and `COc1ccc(-c2ccc(CC(=O)O)c(OCc3cc(-c4cccc(CN)c4)c4occc4c3)c2)c(F)c1` [Compound 397e, 2-(3-((7-(3-(aminomethyl)phenyl)benzofuran-5-yl)methoxy)-2′-fluoro-4′-methoxy-[1,1′-biphenyl]-4-yl)acetic acid] cannot be ordered by IC50: less than 1000 nM for the first, less than 1000 nM for the second.

With `COc1c(C(=O)Nc2ccccc2CC(=O)O)cc(-c2ccnc(CN)c2F)c2occc12` [Compound 334d, 2-(2-(7-(2-(aminomethyl)-3-fluoropyridin-4-yl)-4-methoxybenzofuran-5-carboxamido)phenyl)acetic acid] the IC50 was 1000 to 10000 nM.

— patent publication US11370774B2, “Substituted benzofuran, benzopyrrole, benzothiophene, and structurally related complement inhibitors” (BioCryst Pharmaceuticals, Inc., priority 2018, dated 2022)
